{
  "source": "paper PMC7017074",
  "about": "(Cancers, 2020)",
  "key": {"4T1 cells": {"tested_on": "4T1 cells", "assay": "Tumor regression study in murine breast cancer model", "assay_type": "in vivo, Balb/c mice", "method": "Murine breast cancer-derived 4T1 cells were cultured in complete DMEM (cDMEM) medium (pH 7.4) containing 1% penicillin and streptomycin antibiotic and 10% FBS in a 25-cm^2 flask, and the cell-containing flask was placed in a humidified incubator at 37 °C with 5% CO2. The cells were collected from the exponential growth phase and exposed to the trypsinization process, followed by repeated washing through centrifugation steps; they were then stained with trypan blue, counted using a hemocytometer, and then re-suspended in cDMEM medium at a concentration of 10^6 cells/mL. From this cell stock medium, the calculated volume of cell-containing medium was mixed with 100 µL of PBS (pH 7.4) to ensure 10^5 cells/100 µL for injecting in an animal model.\nAll animals were kept under 12-h/12-h light/dark conditions with free access to ab libitum and water.\nApproximately 1 × 10^5 4T1 cells/100 µL in PBS were subcutaneously injected on the mammary pad. […] The length and width of an outgrowth tumor were estimated in mm by using a digital Vernier caliper over the period of 27 days, and the mice were sacrificed humanely via euthanasia, followed by measuring the weight of different organs of the mice. The body weights of mice with an induced tumor were measured in three-day intervals. The tumor volume data were presented as means ± SD of five different mice from each group. The following formula was used to calculate the tumor volume: Tumour volume (mm^3)=1/2 (Length×Width^2).\nAll the different mixtures with or without the drug were placed in an incubator for 30 min at 37 °C.\nFor the tumor regression study, one group of tumor-bearing mice was kept untreated as a negative control, the other tumor-bearing mice groups were treated with drug-free NPs or CYP only (dose of 0.3 mg/kg) as a positive control, and the remaining breast tumor-bearing mice were injected with CYP-loaded NPs (dose of 0.3 mg/kg) as a treatment group. […]"}, "[1]": {"settings": "tumor-bearing mice, 25 days, vs untreated group; CYP 0.3 mg/kg BW", "method": "Approximately 1 × 10^5 4T1 cells/100 µL in PBS were subcutaneously injected on the mammary pad. […] The length and width of an outgrowth tumor were estimated in mm by using a digital Vernier caliper over the period of 27 days, and the mice were sacrificed humanely via euthanasia, followed by measuring the weight of different organs of the mice. The body weights of mice with an induced tumor were measured in three-day intervals. The tumor volume data were presented as means ± SD of five different mice from each group.\nFor the tumor regression study, one group of tumor-bearing mice was kept untreated as a negative control, the other tumor-bearing mice groups were treated with drug-free NPs or CYP only (dose of 0.3 mg/kg) as a positive control, and the remaining breast tumor-bearing mice were injected with CYP-loaded NPs (dose of 0.3 mg/kg) as a treatment group. […] The treatment was given at day 14 from tumor inoculation through the right or left caudal tail-vein, and the tumor volume was checked throughout the treatment period using a digital Vernier caliper."}, "[2]": {"assay": "Animal biodistribution study (organ and tumor distribution of DOX)", "assay_type": "in vivo, Balb/c mice", "settings": "for DOX in heart / DOX in kidney / DOX in liver / DOX in lungs / DOX in spleen / DOX in tumor: 4T1 tumor mice, IV DOX 5 mg/kg", "method": "Organs were homogenized and lysed with a lysis reagent (sodium fluoride and stable stock lysis buffer). The mixture was centrifuged at 8000 rpm at 4 °C for 50 min. The supernatant was collected in 1.5-mL microcentrifuge tubes. […] The data were presented as means ± SD in relative fluorescence units (RFU)/mg of organ weight."}, "[3]": {"assay": "Serum drug concentration following an intravenous injection", "assay_type": "in vivo, Balb/c mice", "procedure": "The mice were sacrificed after 2 h and 24 h of tail-vein injection (n = 5). The organs such as the liver, kidney, heart, spleen, lungs, and brain, as well as the tumor tissues, were isolated and kept in lysis buffer (pH 7.4) and kept at −150 °C in a freezer until further analysis. Additionally, the weights of all the organs and tumor tissues were measured for quantitative analysis of the presence of drug-loaded NPs.\nTo determine the serum level of total drug-loaded NPs, blood samples of all the mice treated (n = 5) were collected by cardiac puncture using a 1-mL syringe with a 25G needle. A secondary method of euthanasia was performed after a cardiac puncture to sacrifice the animal. The blood samples were collected at two time points of analysis (2 h and 24 h of treatment). The blood samples were allowed to clot by leaving them at room temperature and then centrifuged at 10,000 rpm for 30 min at 4 °C to collect the supernatant serum. Afterward, 100 µL of each serum sample was collected and stored at −80 °C until it was assayed. The fluorescence emission of serum was measured using Perkin Elmer 2030 manager software attached to a 2030 multilabel reader victor X5 (Perkin Elmer) at 485/535 nm. The data were illustrated as means ± SD in RFU/100 µL of serum."}},
  "data": [
    {"smiles": "O=P1(N(CCCl)CCCl)NCCCO1", "note": "(stereo not drawn) [free CYP, cyclophosphamide]", "values": [
      {"measurement": "tumor size at first treatment", "setting": "4T1 cells; day 14 after tumor inoculation, when first treatment was administered", "value": "145.89 ± 33.53", "unit": "mm^3"},
      {"measurement": "tumor size, times less than the untreated group", "setting": "4T1 cells; day 27", "value": "~3.5"},
      {"measurement": "tumor size", "setting": "4T1 cells; day 27, IV, three doses every two days from day 14, CYP 0.3 mg/kg where drug present", "value": "633.33 ± 121.16", "unit": "mm^3"},
      {"measurement": "body weight gain / visible toxicity", "setting": "[1]", "value": "significantly slowed the gain"}
    ]},
    {"smiles": "COc1cccc2c1C(=O)c1c(O)c3c(c(O)c1C2=O)C[C@@](O)(C(=O)CO)C[C@@H]3O[C@H]1C[C@H](N)[C@H](O)[C@H](C)O1", "note": "[Free DOX, doxorubicin]", "values": [
      {"measurement": "DOX in heart", "setting": "[2]; 2 h", "value": "2.86 ± 0.23", "unit": "ng/mg"},
      {"measurement": "DOX in kidney", "setting": "[2]; 2 h", "value": "1.45 ± 0.01", "unit": "ng/mg"},
      {"measurement": "DOX in liver", "setting": "[2]; 2 h", "value": "0.3 ± 0.01", "unit": "ng/mg"},
      {"measurement": "DOX in lungs", "setting": "[2]; 2 h", "value": "0.11 ± 0.01", "unit": "ng/mg"},
      {"measurement": "DOX in spleen", "setting": "[2]; 2 h", "value": "0.13 ± 0.01", "unit": "ng/mg"},
      {"measurement": "DOX in tumor", "setting": "[2]; 2 h", "value": "0.37 ± 0.01", "unit": "ng/mg"},
      {"measurement": "DOX in tumor", "setting": "[2]; 2 h, listed as free DOX", "value": "0.37 ± 0.002", "unit": "ng/mg"},
      {"measurement": "DOX in heart", "setting": "[2]; 24 h", "value": "4.28 ± 0.63", "unit": "ng/mg"},
      {"measurement": "DOX in kidney", "setting": "[2]; 24 h", "value": "1.45 ± 0.01", "unit": "ng/mg"},
      {"measurement": "DOX in liver", "setting": "[2]; 24 h", "value": "1.18 ± 0.31", "unit": "ng/mg"},
      {"measurement": "DOX in lungs", "setting": "[2]; 24 h", "value": "0.14 ± 0.01", "unit": "ng/mg"},
      {"measurement": "DOX in spleen", "setting": "[2]; 24 h", "value": "0.14 ± 0.01", "unit": "ng/mg"},
      {"measurement": "DOX in tumor", "setting": "[2]; 24 h", "value": "0.37 ± 0.01", "unit": "ng/mg"},
      {"measurement": "organ distribution, brain (%)", "setting": "[2]; 2 h, Supplementary Table 1", "value": 0.13, "unit": "%"},
      {"measurement": "organ distribution, heart (%)", "setting": "[2]; 2 h, Supplementary Table 1", "value": 0.41, "unit": "%"},
      {"measurement": "organ distribution, kidney (%)", "setting": "[2]; 2 h, Supplementary Table 1", "value": 0.42, "unit": "%"},
      {"measurement": "organ distribution, liver (%)", "setting": "[2]; 2 h, Supplementary Table 1", "value": 0.35, "unit": "%"},
      {"measurement": "organ distribution, lungs (%)", "setting": "[2]; 2 h, Supplementary Table 1", "value": 0.08, "unit": "%"},
      {"measurement": "organ distribution, spleen (%)", "setting": "[2]; 2 h, Supplementary Table 1", "value": 0.08, "unit": "%"},
      {"measurement": "organ distribution, tumor (%)", "setting": "[2]; 2 h, Supplementary Table 1", "value": 0.08, "unit": "%"},
      {"measurement": "organ distribution, brain (%)", "setting": "[2]; 24 h, Supplementary Table 2", "value": 0.47, "unit": "%"},
      {"measurement": "organ distribution, heart (%)", "setting": "[2]; 24 h, Supplementary Table 2", "value": 0.62, "unit": "%"},
      {"measurement": "organ distribution, kidney (%)", "setting": "[2]; 24 h, Supplementary Table 2", "value": 0.42, "unit": "%"},
      {"measurement": "organ distribution, liver (%)", "setting": "[2]; 24 h, Supplementary Table 2", "value": 1.38, "unit": "%"},
      {"measurement": "organ distribution, lungs (%)", "setting": "[2]; 24 h, Supplementary Table 2", "value": 0.08, "unit": "%"},
      {"measurement": "organ distribution, spleen (%)", "setting": "[2]; 24 h, Supplementary Table 2", "value": 0.08, "unit": "%"},
      {"measurement": "organ distribution, tumor (%)", "setting": "[2]; 24 h, Supplementary Table 2", "value": 0.08, "unit": "%"},
      {"measurement": "serum drug concentration, 2 h (%)", "setting": "[3]; 2 h, Supplementary Table 3", "value": 2.02, "unit": "%"},
      {"measurement": "serum drug concentration, 24 h (%)", "setting": "[3]; 24 h, Supplementary Table 3", "value": 1.71, "unit": "%"},
      {"measurement": "serum drug concentration, 2 h", "setting": "[3]; DOX 5 mg/kg, 2 h", "value": "110.53 ± 11.83", "unit": "ng/100 μL"},
      {"measurement": "blood serum fluorescence, 2 h", "setting": "[3]; DOX 5 mg/kg, 2 h (Figure 6)", "value": "1008.3 ± 431.41", "unit": "RFU/100 µL"},
      {"measurement": "serum drug concentration, 24 h", "setting": "[3]; DOX 5 mg/kg, 24 h", "value": "93.74 ± 3.89", "unit": "ng/100 μL"}
    ]}
  ]
}
